This note sets out measurements from PubChem BioAssay AID328 (DTP/NCI, 2004).

Toxic doses and inconclusive results are not listed. Residues, ends and D or L forms follow the SMILES beside them. *: point of attachment. Cbz = O=C(OCc1ccccc1)*

The test has as its system BDF1 mice, P388 leukemia ip, median survival T/C. As to the kind of experiment: NCI In Vivo Anticancer Drug Screen. Data for tumor model P388 Leukemia (intraperitoneal) in B6D2F1 (BDF1) mice. To be noted: endpoint: median survival time, higher = longer survival. Put shortly: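 In tumour-bearing mice, survival after compound treatment is set against the vehicle group and given as a quotient.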

Where [1] appears, read: dose: 100.0 mg/kg/injection, schedule: Q04DX003 (ip), vehicle: other.
Setting [2] is: dose: 200.0 mg/kg/injection, schedule: Q04DX003 (ip), vehicle: other.
Setting [3] is: dose: 400.0 mg/kg/injection, schedule: Q04DX003 (ip), vehicle: other.
Setting [4] is: dose: 100.0 mg/kg/injection, schedule: Q01DX009 (ip), vehicle: saline with Tween-80.
Setting [5] is: dose: 100.0 mg/kg/injection, schedule: Q04DX003 (ip), vehicle: saline with Tween-80.
Where [6] appears, read: dose: 200.0 mg/kg/injection, schedule: Q04DX003 (ip), vehicle: saline with Tween-80.
The mark [7] stands for this setting: dose: 400.0 mg/kg/injection, schedule: Q04DX003 (ip), vehicle: saline with Tween-80.
Where [8] appears, read: dose: 100.0 mg/kg/injection, schedule: Q04DX003 (ip), vehicle: saline.
Where [9] appears, read: dose: 200.0 mg/kg/injection, schedule: Q04DX003 (ip), vehicle: saline.
Where [10] appears, read: dose: 25.0 mg/kg/injection, schedule: Q01DX009 (ip), vehicle: saline with Tween-80.
Where [11] appears, read: dose: 50.0 mg/kg/injection, schedule: Q01DX009 (ip), vehicle: saline with Tween-80.
Setting [12] is: dose: 50.0 mg/kg/injection, schedule: Q01DX005 (ip), vehicle: saline with Tween-80.

With `COc1cccc2c1C(=O)c1c(O)c3c(c(O)c1C2=O)C[C@@](O)(/C(C)=N\O)C[C@@H]3OC1CC(N)C(O)C(C)O1` (stereo not given in full), the T/C reads like this: (dose: 1.56 mg/kg/injection, schedule: Q01DX009 (ip), vehicle: water) 112 % of control; (dose: 3.12 mg/kg/injection, schedule: Q01DX009 (ip), vehicle: water) 105 % of control; (dose: 6.25 mg/kg/injection, schedule: Q01DX009 (ip), vehicle: water) 161 % of control; (dose: 12.5 mg/kg/injection, schedule: Q01DX009 (ip), vehicle: water) 210 % of control; (dose: 25.0 mg/kg/injection, schedule: Q01DX009 (ip), vehicle: water) 103 % of control.

In the case of `Cc1cc(C)c(C(=O)CC(=O)c2cccnc2)c(C)c1`, the T/C is 115 % of control (dose: 100.0 mg/kg/injection, schedule: Q01DX009 (ip), vehicle: other); 100 % of control under setting [1]; 120 % of control (dose: 200.0 mg/kg/injection, schedule: Q01DX009 (ip), vehicle: other); 100 % of control under setting [2]; 110 % of control (dose: 400.0 mg/kg/injection, schedule: Q01DX009 (ip), vehicle: other); 100 % of control under setting [3].

On to `Nc1ccccc1-n1nc2ccc3ccccc3c2n1`, for which the T/C runs as follows: under setting [4], 105 % of control; (dose: 132.0 mg/kg/injection, schedule: Q01DX009 (ip), vehicle: saline with Tween-80) 90 % of control; (dose: 200.0 mg/kg/injection, schedule: Q01DX009 (ip), vehicle: saline with Tween-80) 100 % of control; (dose: 300.0 mg/kg/injection, schedule: Q01DX009 (ip), vehicle: saline with Tween-80) 95 % of control; (dose: 400.0 mg/kg/injection, schedule: Q01DX009 (ip), vehicle: saline with Tween-80) 105 % of control.

For `CCC(C)Nc1ccccc1` (stereo not given), the T/C was 95 % of control (dose: 50.0 mg/kg/injection, schedule: Q04DX003 (ip), vehicle: Klucel (hydroxypropylcellulose) (HPC)); 100 % of control (dose: 100.0 mg/kg/injection, schedule: Q04DX003 (ip), vehicle: Klucel (hydroxypropylcellulose) (HPC)); 108 % of control (dose: 200.0 mg/kg/injection, schedule: Q04DX003 (ip), vehicle: Klucel (hydroxypropylcellulose) (HPC)).

Take `COn1nnc2c(Cl)c(Cl)ccc21`: the T/C under setting [5] is 95 % of control, the T/C under setting [6] is 92 % of control and the T/C under setting [7] was 100 % of control.

Turning to `CC(=O)OC1CCC(C(C)(C)C)CC1` (stereo not given), the T/C (dose: 50.0 mg/kg/injection, schedule: Q04DX003 (ip), vehicle: saline) is 95 % of control; the T/C under setting [8] is 109 % of control; the T/C under setting [9] is 109 % of control.

For `CSc1ccc(OC(=O)Nc2ccccc2F)cc1`, the T/C (dose: 50.0 mg/kg/injection, schedule: Q04DX003 (ip), vehicle: saline with Tween-80) is 90 % of control; the T/C under setting [5] is 100 % of control; the T/C under setting [6] was 109 % of control.

As for `Cc1ccc(S(=O)(=O)N(C)c2ccc(C(=O)O)cc2F)cc1`, the T/C by setting is: (dose: 75.0 mg/kg/injection, schedule: Q04DX003 (ip), vehicle: saline) 100 % of control; (dose: 150.0 mg/kg/injection, schedule: Q04DX003 (ip), vehicle: saline) 104 % of control; (dose: 300.0 mg/kg/injection, schedule: Q04DX003 (ip), vehicle: saline) 100 % of control.

On to `CNCCCC12CC(c3ccccc31)c1ccccc12`, for which the T/C under setting [10] was 103 % of control, the T/C under setting [11] was 101 % of control and the T/C under setting [4] is 112 % of control.

For the compound `O=C1c2ccccc2C(=O)C1C(C[N+](=O)[O-])c1ccccc1` (stereo not given), the T/C by setting is: (dose: 25.0 mg/kg/injection, schedule: Q01DX005 (ip), vehicle: saline with Tween-80) 118 % of control; under setting [12], 99 % of control.

Regarding `CCOc1ccc(S(=O)(=O)O)c2cccnc12`, the T/C was 105 % of control under setting [8]; 105 % of control under setting [9]; 105 % of control (dose: 400.0 mg/kg/injection, schedule: Q04DX003 (ip), vehicle: saline).

For `N[C@H](Cc1c[nH]c2ccccc12)C(=O)O`, the T/C was 92 % of control (dose: 100.0 mg/kg/injection, schedule: Q01DX010 (ip), vehicle: saline); 96 % of control (dose: 200.0 mg/kg/injection, schedule: Q01DX010 (ip), vehicle: saline); 96 % of control (dose: 400.0 mg/kg/injection, schedule: Q01DX010 (ip), vehicle: saline); 110 % of control (dose: 800.0 mg/kg/injection, schedule: Q01DX010 (ip), vehicle: saline).

With `COc1ccc2c(c1)CCC1C2CCC2(C)C(=O)OC(=O)C12` (stereo not given), the T/C is, setting by setting: (dose: 87.5 mg/kg/injection, schedule: Q01DX009 (sc), vehicle: steriod suspending solution) 91 % of control; (dose: 100.0 mg/kg/injection, schedule: Q04DX003 (sc), vehicle: steriod suspending solution) 100 % of control; (dose: 175.0 mg/kg/injection, schedule: Q01DX009 (sc), vehicle: steriod suspending solution) 100 % of control; (dose: 200.0 mg/kg/injection, schedule: Q04DX003 (sc), vehicle: steriod suspending solution) 109 % of control; (dose: 350.0 mg/kg/injection, schedule: Q01DX009 (sc), vehicle: steriod suspending solution) 95 % of control; (dose: 400.0 mg/kg/injection, schedule: Q04DX003 (sc), vehicle: steriod suspending solution) 95 % of control.

On to `CCCCC(CC)COP(=O)(CC(CC)CCCC)OCC(CC)CCCC` (stereo not given), for which the T/C under setting [10] is 100 % of control.

As for `CC(C)c1ccc(N2C(N)=NC(N)=NC2(C)C)cc1`, the T/C is 110 % of control (dose: 12.5 mg/kg/injection, schedule: Q01DX005 (ip), vehicle: Klucel (hydroxypropylcellulose) (HPC)); 108 % of control (dose: 25.0 mg/kg/injection, schedule: Q01DX005 (ip), vehicle: Klucel (hydroxypropylcellulose) (HPC)); 105 % of control (dose: 50.0 mg/kg/injection, schedule: Q01DX005 (ip), vehicle: Klucel (hydroxypropylcellulose) (HPC)).

In the case of `CCOC(=O)c1oc2ccccc2c1CN`, the T/C reads like this: under setting [11], 107 % of control; under setting [4], 107 % of control.

Consider `O=C(O)/C=C/C(=O)Nc1cccc(Oc2ccc([N+](=O)[O-])cc2[N+](=O)[O-])c1`, for which the T/C is, setting by setting: (dose: 100.0 mg/kg/injection, schedule: Q01DX009 (ip), vehicle: saline) 118 % of control; under setting [1], 100 % of control; (dose: 200.0 mg/kg/injection, schedule: Q01DX009 (ip), vehicle: saline) 122 % of control; under setting [2], 100 % of control; under setting [3], 91 % of control.

For `CC1C(=O)OCC2=CCN3CCC(OC(=O)C(C)C1(C)O)C23` (stereo not given), the T/C (dose: 10.0 mg/kg/injection, schedule: Q01DX010 (ip), vehicle: saline) is 100 % of control; the T/C (dose: 20.0 mg/kg/injection, schedule: Q01DX010 (ip), vehicle: saline) is 105 % of control; the T/C (dose: 25.0 mg/kg/injection, schedule: Q01DX010 (ip), vehicle: carboxymethylcellulose (CMC)) is 122 % of control; the T/C (dose: 40.0 mg/kg/injection, schedule: Q01DX010 (ip), vehicle: saline) was 150 % of control; the T/C (dose: 50.0 mg/kg/injection, schedule: Q01DX010 (ip), vehicle: carboxymethylcellulose (CMC)) is 111 % of control; the T/C (dose: 100.0 mg/kg/injection, schedule: Q01DX010 (ip), vehicle: carboxymethylcellulose (CMC)) was 88 % of control.

As for `CC(C)C(NC(=O)C1CCCN1C(=O)OCc1ccccc1)C(=O)O` (stereo not drawn) (Cbz-Pro-Val-OH; configuration not given here), the T/C reads like this: under setting [5], 104 % of control; under setting [6], 100 % of control; under setting [7], 100 % of control.

Consider `SC1(S)CN2CCC1CC2`, for which the T/C is 105 % of control (dose: 6.25 mg/kg/injection, schedule: Q04DX003 (ip), vehicle: saline); 105 % of control (dose: 12.5 mg/kg/injection, schedule: Q04DX003 (ip), vehicle: saline); 105 % of control (dose: 25.0 mg/kg/injection, schedule: Q04DX003 (ip), vehicle: saline).

On to `CC1(C)OC2(C)CCC1C(O)C2N1CCCCC1` (stereo not given), for which the T/C reads like this: under setting [12], 108 % of control; (dose: 100.0 mg/kg/injection, schedule: Q01DX005 (ip), vehicle: saline with Tween-80) 95 % of control; (dose: 200.0 mg/kg/injection, schedule: Q01DX005 (ip), vehicle: saline with Tween-80) 106 % of control.
